According to patent publication US20060019270A1, “Global DNA methylation assessment using bisulfite PCR” (Board of Regents The University of Texas System, priority 2004, published 2006):

Tests used:
[1] = test system: LINE-1 methylation in Hct116, RKO and SW48 cell lines; test: LINE-1 methylation assay in cell lines treated with DAC (FIG. 14); assay type: cell-based, human; settings: compared with untreated
Description: Hct116, RKO and SW48 cell lines were treated with 5-aza-2′deoxycytidine (DAC). The genomic DNA was treated with sodium bisulfite and a non-specific PCR was performed which amplified a pool of LINE-1 repetitive elements. The PCR product was then digested with HinfI, which only cuts repetitive elements that were originally methylated. The LINE-1 PCR assays the methylation of two sites and therefore HinfI can generate five possible digestion products of 285, 247, 166, 128 and 38 bp (not seen). The digested PCR product was separated by polyacrylamide gel electrophoresis and stained with ethidium bromide. The PCR bands were quantitated and the amount of methylation is shown below each gel lane.
Methylation of the L1 promotor was investigated by COBRA assay (Xiong and Laird, 1997), and bisulfite treatment was performed as described above. A […] PCR was carried out in 60 mM Tris-HCl pH=8.8, 15 mM Ammonium Sulfate, 0.5 mM MgCl2, 1 mM dNTP mix, and 1 unit of Taq polymerase. PCR cycling conditions were 95° C. for 30 seconds, 50° C. for 30 seconds, and 72° C. for 30 seconds for 28 cycles. […] Gels were stained with ethidium bromide, imaged, and quantitated in a Bio-Rad Geldoc 2000 imager (Bio-Rad, Hercules, Calif.). […]

[2] = test system: Alu element methylation in Hct116 cells; test: Bisulfite Alu PCR and pyrosequencing, Hct116 cells treated with DAC; assay type: cell-based, human
Description: Hct116, RKO and SW48, colon cancer cell lines (American Type Culture Collection, Manassas, Va.), were cultured using standard methods. Cells were treated with 5 μM 5-aza-2′deoxycytidine (DAC) for three days prior to being harvested. DNA from cell lines and peripheral blood leukocytes was extracted using phenol-chloroform extraction methods well known to one with skill on the art.
Bisulfite modification of genomic DNA is known in the art (see Clark et. al, 1994). In brief, 1.5 μg prepared 10 mM hydroquinone (Sigma) and 520 μl of 3M Sodium Bisulfite (Sigma) at pH=5.0 were added and mixed. The samples were overlayed with mineral oil to prevent evaporation and incubated at 50° C. for 16 hours. […] Bisulfite treated DNA was stored at −20° C. until ready for use.
The Alu element PCR reaction was modified for pyrosequencing based methylation analysis. […] The PCR product was purified and quantitated using the PSQ HS 96 Pyrosequencing System (Pyrosequencing, Inc.; Westborough, Mass.). […]
Bisulfite Alu PCR products could also be analyzed by pyrosequencing allowing for a rapid analysis of multiple CpG sites. […] This method has the advantage of analyzing several methylation sites, is not restricted to restriction enzyme sites, avoids sequencing multiple clones, and allows accurate quantitation of multiple CpG methylation sites in the same reaction. […]

Nc1ncn([C@H]2C[C@H](O)[C@@H](CO)O2)c(=O)n1 [decitabine, 5-aza-2′-deoxycytidine]
LINE-1 methylation in DAC treated cell lines [1]: lower degree of methylation
Alu methylation after DAC as percent of potential methylation sites ([2]; pyrosequencing, untreated about 87%): 62%
Alu methylation by pyrosequencing after DAC treatment (average of three CpG sites) ([2]; untreated 20.2%, SssI maximum 23.2%): 14.5%
